For assay [1], the system named is acute lymphoblastic leukemia. The following applies: in vivo; cited from earlier work.
Assay [2] relates to human tumor xenograft models. The note with it: cited from earlier work.
The target in assay [3] is T1, mTOR (Homo sapiens, UniProt P42345). The following applies: read-out: mTOR IC50; mTOR complexes (PI103), mTOR enzyme (ZSTK474); cited from earlier work.
Another assay has as its target hSMG-1 (Homo sapiens, UniProt Q96Q15). The following applies: read-out: hSMG-1 kinase activity IC50; cited from earlier work.
The target of another assay is PI3K-alpha (Homo sapiens, UniProt P42336). In words: PI3K-alpha fluorescence polarization assay. The note with it: 20 μM PIP2, 25 μM ATP; read-out: PI3Kα IC50. The assay is classed as biochemical. The essentials: (§1)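 PIP2 (diC8) and ATP substrate with PI3K in 20 mM HEPES pH 7.5, 2 mM MgCl2, 0.05% CHAPS, 0.01% βME; 1% DMSO final; 30–60 min reaction. Stopped with EDTA plus GST-GRP (70 nM) and TAMRA probe (10 nM); FP (mP) read after 30–90 min, with no-enzyme controls.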
On the technique in general: Polarisation of emitted light reports the rotation of a fluorescent probe.

The next assay concerns the target PI3K-gamma (Homo sapiens, UniProt P48736). Nature of the assay: PI3K-gamma fluorescence polarization assay. The following applies: 20 μM PIP2, 25 μM ATP; read-out: PI3Kγ IC50. In kind it is biochemical. The essentials: as §1
Another assay has as its system LNCap. In words: In vitro cell growth assay (MTS), LNCap. In kind it is cell-based. The note with it: LNCaP, 72 h, human prostate line, three days after drug treatment.
In another assay the test system is MDA468. In words: In vitro cell growth assay (MTS), MDA468. The assay is classed as cell-based. The following applies: 72 h, human breast line MDA468, three days after drug treatment, read-out: MDA IC50.
The target in assay [4] is T1, mTOR. In words: mTOR enzyme assay (DELFIA, purified FLAG-TOR, His6-S6K substrate). The assay is classed as biochemical. Details: FLAG. The note with it: 100 μM ATP, 2 hours.

Where two headings read alike, the source gives them in different places.

Sequence of PI3K-alpha (P42336 whole entry, species assumed): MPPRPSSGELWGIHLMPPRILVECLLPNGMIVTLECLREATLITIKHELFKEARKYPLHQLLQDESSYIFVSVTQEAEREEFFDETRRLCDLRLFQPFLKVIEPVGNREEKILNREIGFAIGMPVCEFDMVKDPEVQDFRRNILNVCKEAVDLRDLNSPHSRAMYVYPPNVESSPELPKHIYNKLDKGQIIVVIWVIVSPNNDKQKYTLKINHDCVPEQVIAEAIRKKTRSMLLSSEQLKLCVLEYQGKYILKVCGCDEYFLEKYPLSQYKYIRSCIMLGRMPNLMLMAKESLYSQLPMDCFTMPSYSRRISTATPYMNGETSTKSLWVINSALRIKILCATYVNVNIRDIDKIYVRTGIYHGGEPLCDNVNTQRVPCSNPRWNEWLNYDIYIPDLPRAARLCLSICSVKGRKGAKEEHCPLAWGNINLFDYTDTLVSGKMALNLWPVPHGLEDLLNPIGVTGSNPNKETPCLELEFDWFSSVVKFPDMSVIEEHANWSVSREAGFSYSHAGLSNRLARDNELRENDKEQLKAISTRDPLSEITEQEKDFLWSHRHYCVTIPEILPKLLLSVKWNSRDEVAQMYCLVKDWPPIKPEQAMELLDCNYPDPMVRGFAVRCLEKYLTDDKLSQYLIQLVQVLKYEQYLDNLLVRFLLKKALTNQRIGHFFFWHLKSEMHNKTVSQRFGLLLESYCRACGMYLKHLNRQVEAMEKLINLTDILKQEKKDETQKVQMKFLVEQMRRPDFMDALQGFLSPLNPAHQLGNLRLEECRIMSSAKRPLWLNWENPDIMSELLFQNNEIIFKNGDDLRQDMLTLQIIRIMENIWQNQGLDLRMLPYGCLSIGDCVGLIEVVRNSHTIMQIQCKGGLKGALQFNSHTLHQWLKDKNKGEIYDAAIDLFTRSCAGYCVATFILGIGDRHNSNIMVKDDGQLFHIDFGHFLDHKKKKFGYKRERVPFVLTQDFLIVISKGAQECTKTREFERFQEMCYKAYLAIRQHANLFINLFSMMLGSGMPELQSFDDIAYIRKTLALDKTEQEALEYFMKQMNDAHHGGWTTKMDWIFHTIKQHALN
Sequence of PI3K-alpha (P27986 whole entry partner, species assumed): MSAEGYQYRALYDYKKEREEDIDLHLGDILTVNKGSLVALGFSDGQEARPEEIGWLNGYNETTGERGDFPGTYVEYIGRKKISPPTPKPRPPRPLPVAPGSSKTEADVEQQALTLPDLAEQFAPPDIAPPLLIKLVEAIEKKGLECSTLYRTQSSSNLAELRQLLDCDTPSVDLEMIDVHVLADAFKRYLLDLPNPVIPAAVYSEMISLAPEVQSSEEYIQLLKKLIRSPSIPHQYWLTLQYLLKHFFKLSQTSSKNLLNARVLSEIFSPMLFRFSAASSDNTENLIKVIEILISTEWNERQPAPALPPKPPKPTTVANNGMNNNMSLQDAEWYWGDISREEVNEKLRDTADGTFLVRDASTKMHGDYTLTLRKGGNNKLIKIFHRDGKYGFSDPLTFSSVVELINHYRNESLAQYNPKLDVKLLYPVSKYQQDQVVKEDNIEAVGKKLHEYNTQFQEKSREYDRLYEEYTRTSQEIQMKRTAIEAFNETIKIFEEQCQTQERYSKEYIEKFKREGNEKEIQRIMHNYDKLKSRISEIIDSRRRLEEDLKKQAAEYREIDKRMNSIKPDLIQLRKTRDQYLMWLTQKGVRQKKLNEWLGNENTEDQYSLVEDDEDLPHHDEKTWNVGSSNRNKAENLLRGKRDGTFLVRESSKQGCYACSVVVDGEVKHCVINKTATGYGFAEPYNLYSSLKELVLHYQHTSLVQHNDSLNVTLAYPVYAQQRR
Sequence of PI3K-gamma (P48736 whole entry, species assumed): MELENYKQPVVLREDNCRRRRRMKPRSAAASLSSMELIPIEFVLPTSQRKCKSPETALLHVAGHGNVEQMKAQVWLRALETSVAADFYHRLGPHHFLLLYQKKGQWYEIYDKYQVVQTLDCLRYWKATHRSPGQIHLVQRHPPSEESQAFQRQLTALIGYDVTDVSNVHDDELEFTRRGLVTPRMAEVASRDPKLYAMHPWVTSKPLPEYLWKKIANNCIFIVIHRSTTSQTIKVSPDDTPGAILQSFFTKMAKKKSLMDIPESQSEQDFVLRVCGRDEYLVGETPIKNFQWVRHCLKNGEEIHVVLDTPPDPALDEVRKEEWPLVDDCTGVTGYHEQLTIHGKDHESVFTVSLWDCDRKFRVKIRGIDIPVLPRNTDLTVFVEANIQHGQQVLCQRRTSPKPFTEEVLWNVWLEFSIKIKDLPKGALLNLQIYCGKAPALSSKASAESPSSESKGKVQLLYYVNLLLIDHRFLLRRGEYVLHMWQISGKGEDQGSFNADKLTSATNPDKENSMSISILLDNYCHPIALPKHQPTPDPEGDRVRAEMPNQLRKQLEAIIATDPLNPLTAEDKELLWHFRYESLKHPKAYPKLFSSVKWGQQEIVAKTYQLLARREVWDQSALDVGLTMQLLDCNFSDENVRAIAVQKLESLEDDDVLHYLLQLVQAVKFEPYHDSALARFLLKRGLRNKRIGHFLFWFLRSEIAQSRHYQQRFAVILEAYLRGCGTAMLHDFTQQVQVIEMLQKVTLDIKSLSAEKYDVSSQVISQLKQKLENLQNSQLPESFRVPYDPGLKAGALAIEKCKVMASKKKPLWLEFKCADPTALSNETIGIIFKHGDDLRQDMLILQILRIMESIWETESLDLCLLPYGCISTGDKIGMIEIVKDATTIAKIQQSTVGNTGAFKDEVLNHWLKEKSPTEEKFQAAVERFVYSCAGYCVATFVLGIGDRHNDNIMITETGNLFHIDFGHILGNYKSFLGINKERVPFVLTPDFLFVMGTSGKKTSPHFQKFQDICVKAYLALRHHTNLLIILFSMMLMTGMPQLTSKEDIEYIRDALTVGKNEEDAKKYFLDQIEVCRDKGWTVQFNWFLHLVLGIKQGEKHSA

Take `CO[C@H]1C[C@@H]2CC[C@@H](C)[C@@](O)(O2)C(=O)C(=O)N2CCCC[C@H]2C(=O)O[C@H]([C@H](C)C[C@@H]2CC[C@@H](OC(=O)C(C)(CO)CO)[C@H](OC)C2)CC(=O)[C@H](C)/C=C(\C)[C@@H](O)[C@@H](OC)C(=O)[C@H](C)C[C@H](C)/C=C/C=C/C=C/1C` [Torisel]: the “activity in NOS/SCID xenograft mouse model of acute lymphoblastic leukemia” value in [1] is recorded as “active”.
By IC50 is commonly meant the point on the concentration scale where inhibition reaches its midpoint. As for `FC(F)c1nc2ccccc2n1-c1nc(N2CCOCC2)nc(N2CCOCC2)n1` [ZSTK474, 2-(2-difluoromethylbenzoimidazol-1-yl)-4,6-dimorpholino-1,3,5-triazine], in assay [2] (chronic oral administration, 400 mg/kg, A549, PC-3, WiDr), the “tumor growth in mouse human xenograft cancer models” value is listed as “completely inhibited growth”. The IC50 on mTOR [3] is more than 10 µM.
With `Cn1c(=O)n(-c2ccc(C(C)(C)C#N)cc2)c2c3cc(-c4cnc5ccccc5c4)ccc3ncc21` [NVP-BEZ-235, 2-methyl-2-(4-(3-methyl-2-oxo-8-(quinolin-3-yl)-2,3-dihydro-1H-imidazo[4,5-c]quinolin-1-yl)phenyl)propanenitrile], the “activity against human tumor models” value in assay [2] (PC-3 and U-87 xenografts) was “demonstrated activity”.
Regarding `Oc1cccc(-c2nc(N3CCOCC3)c3oc4ncccc4c3n2)c1` [PI103, 3-(4-(4-morpholinyl)pyrido[3′,′:4,5]furo[3,2-d]pyrimidin-2-yl)phenol], the “activity against human tumor models” value in assay [2] (I.P. dosing in mice, U87MG, PC3, MDA-MB-468, MDA-MB-435, HCT 116, SKOV3, IGROV-1) was “demonstrated activity”.
Take `COC[C@H]1OC(=O)c2coc3c2[C@@]1(C)C1=C(C3=O)[C@@H]2CCC(=O)[C@@]2(C)C[C@H]1OC(C)=O` [Wortmannin]: the IC50 on hSMG-1 was approximately 0.06 µM.
As for `CC(C)Nc1cc(N2C3CCC2COC3)nc(-c2ccc(NC(=O)Nc3ccc(CN4CCCC4)cc3)cc2)n1` [1-(4-{4-[(1-methylethyl)amino]-6-(3-oxa-8-azabicyclo[3.2.1]oct-8-yl)pyrimidin-2-yl}phenyl)-3-[4-(pyrrolidin-1-ylmethyl)phenyl]urea], the IC50 on PI3K-alpha came to 1.09 µM; on PI3K-gamma, 3.58 µM; in the assay on LNCap, 0.11 µM; in the assay with MDA468, 0.08 µM; against mTOR [4] it was 0.00295 µM.
On the same counts, the results for `O=C(Nc1ccncc1)Nc1ccc(-c2nc(NC3CCOCC3)cc(N3C4CCC3COC4)n2)cc1` [1-{4-[4-(3-oxa-8-azabicyclo[3.2.1]oct-8-yl)-6-(tetrahydro-2H-pyran-4-ylamino)pyrimidin-2-yl]phenyl}-3-pyridin-4-ylurea] are 2.01 µM, 12 µM, 0.04 µM, 0.04 µM and 0.0038 µM.
